Test results reported in patent US10131652B2, “Pyrimidinyloxy benzene derivatives as herbicides” (E. I. DU PONT DE NEMOURS AND COMPANY, priority 2014, dated 2018).
Where two headings read alike, the source gives them in different places.

Tests used:
Assay in all cases: Test F pre-/postemergence plant response
Assay type in all cases: in vivo
corn (Zea mays) = details: scale 0 to 100; for Corn plant response rating (crop injury, 0 = no effect, 100 = complete kill) at 8 g/ha / Corn plant response rating (crop injury, 0 = no effect, 100 = complete kill) at 16 g/ha / Corn plant response rating (crop injury, 0 = no effect, 100 = complete kill) at 31 g/ha / Corn plant response rating (crop injury, 0 = no effect, 100 = complete kill) at 62 g/ha / Corn plant response rating (crop injury, 0 = no effect, 100 = complete kill) at 125 g/ha: Zea mays
Outline: (§1)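 Formulation: non-phytotoxic solvent mix + surfactant. Preemergence: applied to seeded silt loam. Postemergence: foliar, 1- to 4-leaf plants, 2–18 cm. Greenhouse hold 14–21 days; visual score vs controls, 0 = no effect, 100 = complete control; dash = not tested.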

[1] = system: Brazilian crabgrass (Digitaria horizontalis); details: scale 0 to 100; for pest or weed control at 8 g/ha / pest or weed control at 16 g/ha / pest or weed control at 31 g/ha / pest or weed control at 62 g/ha / pest or weed control at 125 g/ha: Digitaria horizontalis, read-out: Plant response rating, Crabgrass, Brazil
Outline: as §1

[2] = system: fall panicum (Panicum dichotomiflorum); details: scale 0 to 100; for pest or weed control at 8 g/ha / pest or weed control at 16 g/ha / pest or weed control at 31 g/ha / pest or weed control at 62 g/ha / pest or weed control at 125 g/ha: Panicum dichotomiflorum, read-out: Plant response rating, Panicum, Fall
Outline: as §1

[3] = system: ragweed (common ragweed, Ambrosia elatior); details: scale 0 to 100
Outline: as §1

[4] = system: lambsquarters (Chenopodium album); details: Chenopodium album, pre-emergence, scale 0 to 100, read-out: Plant response rating, Lambsquarters; for pest or weed control at 31 g/ha: 31 g ai/ha
Outline: as §1

[5] = system: green foxtail (Setaria viridis); details: Setaria viridis, pre-emergence, scale 0 to 100, read-out: Plant response rating, Foxtail, Green; for pest or weed control at 31 g/ha: 31 g ai/ha
Outline: as §1

[6] = system: morningglory (Ipomoea coccinea); details: Ipomoea, pre-emergence, scale 0 to 100, read-out: Plant response rating, Morningglory; for pest or weed control at 31 g/ha: 31 g ai/ha Preemergence; for pest or weed control at 62 g/ha: Preemergence
Outline: as §1

[7] = post-emergence, 8 g ai/ha Postemergence
[8] = post-emergence, 16 g ai/ha Postemergence
[9] = post-emergence, 31 g ai/ha Postemergence
[10] = post-emergence, 62 g ai/ha Postemergence
[11] = post-emergence, 125 g ai/ha Postemergence
[12] = pre-emergence, 8 g ai/ha Preemergence
[13] = pre-emergence, 16 g ai/ha Preemergence
[14] = pre-emergence, 31 g ai/ha Preemergence
[15] = pre-emergence, 62 g ai/ha Preemergence
[16] = pre-emergence, 125 g ai/ha Preemergence
[17] = Ambrosia artemisiifolia, pre-emergence, 31 g ai/ha Preemergence, read-out: Plant response rating, Ragweed
[18] = Ambrosia artemisiifolia, pre-emergence, Preemergence, read-out: Plant response rating, Ragweed

## FC(F)c1cc(-c2ccccc2Oc2ncc(Cl)cn2)on1 [Compound 53, 5-chloro-2-[2-[3-(difluoromethyl)-5-isoxazolyl]phenoxy]pyrimidine]
Corn (Zea mays); [7]
  Corn plant response rating (crop injury, 0 = no effect, 100 = complete kill) at 8 g/ha: 0%
Corn (Zea mays); [8]
  Corn plant response rating (crop injury, 0 = no effect, 100 = complete kill) at 16 g/ha: 0%
Corn (Zea mays); [9]
  Corn plant response rating (crop injury, 0 = no effect, 100 = complete kill) at 31 g/ha: 0%
Corn (Zea mays); [10]
  Corn plant response rating (crop injury, 0 = no effect, 100 = complete kill) at 62 g/ha: 0%
Corn (Zea mays); [11]
  Corn plant response rating (crop injury, 0 = no effect, 100 = complete kill) at 125 g/ha: 10%
Corn (Zea mays); [12]
  Corn plant response rating (crop injury, 0 = no effect, 100 = complete kill) at 8 g/ha: 0%
Corn (Zea mays); [13]
  Corn plant response rating (crop injury, 0 = no effect, 100 = complete kill) at 16 g/ha: 0%
Corn (Zea mays); [14]
  Corn plant response rating (crop injury, 0 = no effect, 100 = complete kill) at 31 g/ha: 0%
Corn (Zea mays); [15]
  Corn plant response rating (crop injury, 0 = no effect, 100 = complete kill) at 62 g/ha: 0%
Corn (Zea mays); [16]
  Corn plant response rating (crop injury, 0 = no effect, 100 = complete kill) at 125 g/ha: 15%
[1]; [7]
  pest or weed control at 8 g/ha: 0%
[1]; [8]
  pest or weed control at 16 g/ha: 10%
[1]; [9]
  pest or weed control at 31 g/ha: 15%
[1]; [10]
  pest or weed control at 62 g/ha: 20%
[1]; [11]
  pest or weed control at 125 g/ha: 20%
[1]; [12]
  pest or weed control at 8 g/ha: 0%
[1]; [13]
  pest or weed control at 16 g/ha: 0%
[1]; [14]
  pest or weed control at 31 g/ha: 5%
[1]; [15]
  pest or weed control at 62 g/ha: 85%
[1]; [16]
  pest or weed control at 125 g/ha: 90%
[2]; [7]
  pest or weed control at 8 g/ha: 0%
[2]; [8]
  pest or weed control at 16 g/ha: 5%
[2]; [9]
  pest or weed control at 31 g/ha: 20%
[2]; [10]
  pest or weed control at 62 g/ha: 15%
[2]; [11]
  pest or weed control at 125 g/ha: 60%
[2]; [12]
  pest or weed control at 8 g/ha: 0%
[2]; [13]
  pest or weed control at 16 g/ha: 0%
[2]; [14]
  pest or weed control at 31 g/ha: 0%
[2]; [16]
  pest or weed control at 125 g/ha: 98%
[2]; pre-emergence, Preemergence
  pest or weed control at 62 g/ha: 95%
[3]; Ambrosia artemisiifolia, pre-emergence, 8 g ai/ha Preemergence, read-out: Plant response rating, Ragweed
  pest or weed control at 8 g/ha: 0%
[3]; Ambrosia artemisiifolia, pre-emergence, 16 g ai/ha Preemergence, read-out: Plant response rating, Ragweed
  pest or weed control at 16 g/ha: 0%
[3]; [17]
  pest or weed control at 31 g/ha: 0%
[3]; Ambrosia artemisiifolia, pre-emergence, 125 g ai/ha Preemergence, read-out: Plant response rating, Ragweed
  pest or weed control at 125 g/ha: 40%
[3]; [18]
  pest or weed control at 62 g/ha: 30%
[4]; 8 g ai/ha Preemergence
  pest or weed control at 8 g/ha: 65%
[4]; 16 g ai/ha, Preemergence
  pest or weed control at 16 g/ha: 65%
[4]; Preemergence
  pest or weed control at 31 g/ha: 95%
  pest or weed control at 62 g/ha: 95%
[4]; 125 g ai/ha, Preemergence
  pest or weed control at 125 g/ha: 98%
[5]; 8 g ai/ha Preemergence
  pest or weed control at 8 g/ha: 0%
[5]; 16 g ai/ha, Preemergence
  pest or weed control at 16 g/ha: 0%
[5]; Preemergence
  pest or weed control at 31 g/ha: 0%
  pest or weed control at 62 g/ha: 20%
[5]; 125 g ai/ha, Preemergence
  pest or weed control at 125 g/ha: 90%
[6]; 8 g ai/ha Preemergence
  pest or weed control at 8 g/ha: 0%
[6]; 16 g ai/ha Preemergence
  pest or weed control at 16 g/ha: 0%
[6]
  pest or weed control at 31 g/ha: 0%
  pest or weed control at 62 g/ha: 0%
[6]; 125 g ai/ha Preemergence
  pest or weed control at 125 g/ha: 0%

## Fc1cccc(Oc2ncc(Cl)cn2)c1-c1cc(C(F)F)on1 [Compound 55, 5-chloro-2-[2-[5-(difluoromethyl)-3-isoxazolyl]-3-fluorophenoxy]pyrimidine]
Corn (Zea mays); [9]
  Corn plant response rating (crop injury, 0 = no effect, 100 = complete kill) at 31 g/ha: 15%
Corn (Zea mays); [10]
  Corn plant response rating (crop injury, 0 = no effect, 100 = complete kill) at 62 g/ha: 20%
Corn (Zea mays); [14]
  Corn plant response rating (crop injury, 0 = no effect, 100 = complete kill) at 31 g/ha: 0%
Corn (Zea mays); [15]
  Corn plant response rating (crop injury, 0 = no effect, 100 = complete kill) at 62 g/ha: 40%
[1]; [9]
  pest or weed control at 31 g/ha: 40%
[1]; [10]
  pest or weed control at 62 g/ha: 30%
[1]; [14]
  pest or weed control at 31 g/ha: 75%
[1]; [15]
  pest or weed control at 62 g/ha: 100%
[2]; [9]
  pest or weed control at 31 g/ha: 40%
[2]; [10]
  pest or weed control at 62 g/ha: 30%
[2]; [14]
  pest or weed control at 31 g/ha: 90%
[2]; pre-emergence, Preemergence
  pest or weed control at 62 g/ha: 100%
[3]; Ambrosia artemisiifolia, post-emergence, 31 g ai/ha Postemergence, read-out: Plant response rating, Ragweed
  pest or weed control at 31 g/ha: 55%
[3]; Ambrosia artemisiifolia, post-emergence, 62 g ai/ha Postemergence, read-out: Plant response rating, Ragweed
  pest or weed control at 62 g/ha: 55%
[3]; [17]
  pest or weed control at 31 g/ha: 40%
[3]; [18]
  pest or weed control at 62 g/ha: 50%
[4]; Preemergence
  pest or weed control at 31 g/ha: 100%
  pest or weed control at 62 g/ha: 100%
[5]; Preemergence
  pest or weed control at 31 g/ha: 20%
  pest or weed control at 62 g/ha: 70%
[6]
  pest or weed control at 31 g/ha: 30%
  pest or weed control at 62 g/ha: 98%

## Fc1ccc(Oc2ncc(Cl)cn2)c(-c2cc(C(F)(Cl)Cl)on2)c1 [Compound 221]
Corn (Zea mays); 16 g ai/ha Postemergence
  Plant response rating, Corn: 5
Corn (Zea mays); 31 g ai/ha Postemergence
  Plant response rating, Corn: 10
Corn (Zea mays); 62 g ai/ha Postemergence
  Plant response rating, Corn: 10
Corn (Zea mays); 125 g ai/ha Postemergence
  Plant response rating, Corn: 20
[1]; 16 g ai/ha Postemergence
  Plant response rating, Crabgrass, Brazil: 20
[1]; 31 g ai/ha Postemergence
  Plant response rating, Crabgrass, Brazil: 25
[1]; 62 g ai/ha Postemergence
  Plant response rating, Crabgrass, Brazil: 45
[1]; 125 g ai/ha Postemergence
  Plant response rating, Crabgrass, Brazil: 75
[2]; 16 g ai/ha Postemergence
  Plant response rating, Panicum, Fall: 10
[2]; 31 g ai/ha Postemergence
  Plant response rating, Panicum, Fall: 15
[2]; 62 g ai/ha Postemergence
  Plant response rating, Panicum, Fall: 40
[2]; 125 g ai/ha Postemergence
  Plant response rating, Panicum, Fall: 60
[3]; 16 g ai/ha Postemergence
  Plant response rating, Ragweed: 50
[3]; 31 g ai/ha Postemergence
  Plant response rating, Ragweed: 60
[3]; 62 g ai/ha Postemergence
  Plant response rating, Ragweed: 70
[3]; 125 g ai/ha Postemergence
  Plant response rating, Ragweed: 80
